These results are taken from patent US8063026B2, “Method of palliating lower urinary tract infections by treatment with mannan oligosaccharides” (priority 2006, dated 2011).

This assay has as its system UTI symptoms. Kind of assay: Treatment of UTI symptoms in a patient (case reports). Format: in vivo, human. To be noted: recurrent UTI episodes about 48 hours after sex, 1 tablet twice daily for five days. The procedure:
A patient had been experiencing urinary tract infections since 1999. Episodes were very painful and invariably occurred about 48 hours after having sex. […] This pattern persisted for 6 years.
During an episode of UTI symptoms (urge to urinate; severe burning with urination; blood in urine), 100 mg MOS was administered to a patient (weighing approximately 50 kg) as a tablet (BioMOS® tablets, Alltech)-1 tablet before and after sex, plus three tablets per day.
Beginning during a symptom-free period, 100 mg MOS was administered to a patient (weighing approximately 50 kg) as a tablet (BioMOS® tablets, Alltech), once per day plus one pill with sex.
During a symptom-free period, 500 mg of MOS was administered as a capsule (capsules prepared from bulk CitriStim™, Archer Daniels Midland Alliance Nutrition, Inc., Quincy, Ill.; 1 or 2 capsules daily). […] Two capsules (CitriStim) were administered (three hours apart), followed 2 hours later by 100 mg MOS in tablet form (BioMOS® tablets, Alltech). […] Two MOS tablets were administered that morning (4 hours apart). In the late afternoon, a CitriStim capsule was administered, and one capsule was administered twice the following day.

Consider `O=C(O)c1cn(C2CC2)c2cc(N3CCNCC3)c(F)cc2c1=O` [Cipro®, ciprofloxacin], for which the “Relief of UTI symptoms” value is on record as “quickly relieve symptoms”.

In the case of “trimethoprim-sulfamethoxazole [Bactrin DS®]”, the “Relief of UTI symptoms” value is “quickly relieve symptoms”.
